{
  "source": "patent US20040086891A1",
  "about": "“Dehydrogenase oligomeric modulators” (priority 1998, published 2004)",
  "key": {"COS and Hek cells": {"tested_on": "COS and Hek cells", "assay": "GAPDH-GFP fusion protein localization in living COS and Hek cells (LCSM)", "type": "cell-based", "details": "first two hours after exposure", "source_text": "GAPDH cDNA was cloned from rat brain using oligonucleotides designed to the 5′- and 3′-ends of the coding region of rat GAPDH with PCR. The cDNA was used to produce a GAPDH-green fluorescent protein (GFP) construct by adding a 3′ oligo (Gly)s to the C-terminus of GAPDH followed by a BamHI site to allow subcloning, in frame, into pEGFP-1 (Clontech). The resulting construct contains GAPDH followed by (Gly)5 and enhanced GFP. The insert was subcloned into the Hindlil-Notl sites of pcDNA3. The GAPDH-GFP construct has been transiently transfected into COS1 cells and stably transfected into HEK 293 cells.\nApoptosis was induced in the living COS and Hek cells maintained in a physiological chamber on LCSM. […] These experiments established that GAPDH nuclear translocation occurs dynamically during the very early stages of apoptosis and indicate that GAPDLH participates in the initiation phase of apoptosis."}, "GAPDH [1]": {"target": "T1, GAPDH (Homo sapiens, UniProt P04406)", "T1 sequence (P04406 whole entry, species assumed)": "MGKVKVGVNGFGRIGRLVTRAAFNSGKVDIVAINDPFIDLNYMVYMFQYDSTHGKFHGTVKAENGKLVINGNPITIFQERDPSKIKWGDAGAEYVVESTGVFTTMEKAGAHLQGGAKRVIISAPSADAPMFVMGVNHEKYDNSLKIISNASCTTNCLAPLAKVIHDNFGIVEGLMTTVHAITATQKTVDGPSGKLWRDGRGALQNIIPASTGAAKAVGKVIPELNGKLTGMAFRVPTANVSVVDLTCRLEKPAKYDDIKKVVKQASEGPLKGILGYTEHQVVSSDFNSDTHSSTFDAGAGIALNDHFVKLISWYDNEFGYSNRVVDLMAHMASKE", "details": "cited from earlier work"}, "NG108-15 cells": {"tested_on": "NG108-15 cells", "details": "cited from earlier work"}, "GAPDH [2]": {"tested_on": "GAPDH", "assay": "GAPDH protein levels in early apoptosis after trophic withdrawal", "type": "cell-based", "details": "increase begins 1.5 to 2.0 hours after trophic withdrawal", "source_text": "(§1) As well as the nuclear translocation, GAPDH levels increase rapidly in the early phases of apoptosis. […] At least three molecules associated with toxin-induced neuronal apoptosis—nitric oxide, superoxide radical and peroxynitrite—have the capacity to free GAPDH from AU-rich RNA (Beckman and Koppenol, 1996). Nitric oxide modifies the structure of GAPDH and appears to free it from AU-rich RNA (Brune and Lapetina, 1995; Brune and Lapetina, 1996; Itoga et al., 1997; McDonald and Moss, 1994). Oxygen free radicals enhance the binding of NAD^+ to GAPDH (Marin et al., 1995). If, in fact, GAPDH translocation to the nucleus does initiate or facilitate apoptosis, then ROS and NO may induce apoptosis through GAPDH."}, "GAPDH [3]": {"target": "T1, GAPDH", "assay": "Photoaffinity binding and BODIPY-labelled CGP3466 protein binding study", "details": "photoaffinity binding techniques, BODIPY chromogen", "source_text": "It was also shown that there was an increase in GAPDH levels found in early apoptosis. Photoaffinity binding techniques and a BODIPY chromogen attached to dibenzo[bf]oxepin-10-ylmethyl-prop-2-ynyl-amine (CGP3466), were used to study the protein and subcellular binding of (−)-desmethyldeprenyl (DES) and CGP3466."}, "PC12 cells": {"tested_on": "PC12 cells", "assay": "Subcellular localization of GAPDH in PC12 cells entering apoptosis (immunocytochemistry, LCSM)", "type": "cell-based", "details": "early apoptosis, 3-12 hours after serum and NGF withdrawal", "source_text": "(§2) The subcellular localization of GAPDH in PC12 cells entering apoptosis using immunocytochemistry and LCSM has been studied."}, "GAPDH [4]": {"target": "T1, GAPDH", "assay": "Size exclusion chromatography of the oligomeric state of GAPDH", "type": "biochemical", "details": "for oligomeric state of GAPDH bound to poly-U RNA: size exclusion chromatography, GAPDH largely tetrameric without compound; for oligomeric state of GAPDH in the presence of SDS: sodium dodecyl sulfate added, untreated protein becomes monomeric", "experimental": "A dehydrogenase oligomeric modulator is identified using size exclusion chromatographic (SEC) techniques. A test compound is tested for its ability to prevent tetramer formation of GAPDH and compounds capable of preventing or inhibiting such formation are identified as DOMs. SEC is used to determine if potential compounds affect the oligomeric state of GAPDH (or any oligomeric protein) when contacted with GAPDH under conditions which promote oligomer formation. This method can be further refined and sped up (i.e., faster data collection) by using SEC-high performance liquid chromatographic (SEC-HPLC) methods. An example is set forth below.\nA column was made using a disposable 1 cm diameter column (BIORAD). The chosen matrix for the column was Sephacryl H-300 (PHARMACIA). The column was poured by mixing the beads (SEPHACRYL) in a buffer and layering into the column until the bed was about 12 cm long. The buffer used was 50 mM TRIS—HCl, pH 8.0. The column was then washed with the same buffer for 10 column volumes.\nA selection.of protein standards of known molecular weight was run through the column.\nOnce the column is calibrated, the molecular weight of the eluted fractions (in this case, GAPDH monomers, dimers and tetramers) may be determined.\nPrior to moving the proteins to the column they are contacted with candidate compound and mixed at room temperature in, e.g., nanomolar concentrations under conditions known to those skilled in the art.\nThe mixture prepared above is then added to the column and eluted with 50 mM TRIS—HCl pH 8.0 buffer. 500 μl fractions of the eluent are collected. The optical density of the fractions is then determined, e.g., at 280 nm, and an elution profile prepared and analyzed to determine the extent of oligomerization.\nGAPDH is a tetramer consisting of four identical monomers (FIG. 1). The tetramer exists in equilibrium between tetramers, dimers and monomers. This equilibrium strongly favors the tetrameric form. Upon tetramer formation, there is a channel present between the four monomers. […] As such, the ability of (−)-desmethyldeprenyl and CGP3466 to decrease GAPDH tetramer and increase GAPDH dimer in vitro identifies these compounds as oligomeric modulators of GAPDH."}, "GAPDH [5]": {"target": "T1, GAPDH", "assay": "Antibody blocking experiment for drug binding in the GAPDH channel", "details": "protein first treated with antibody, then drug", "experimental": "Antibody blocking experiments were conducted to confirm that CGP3466 bound GAPDH in the channel. In FIG. 2, GAPDH is shown in blue with the site for an antibody which was raised to a certain part of GAPDH is green."}, "fibroblasts": {"tested_on": "fibroblasts", "assay": "GAPDH nuclear translocation in fibroblasts treated with NAD+", "type": "cell-based"}, "GAPDH [6]": {"target": "T1, GAPDH", "assay": "Release of GAPDH from AU-rich RNA and glycolytic activity", "type": "biochemical", "source_text": "as §1"}, "[7]": {"tested_on": "partially differentiated PC12 cells or fibroblasts", "assay": "Apoptosis and GAPDH nuclear translocation after NO donor treatment", "type": "cell-based", "source_text": "as §2"}},
  "note": "“Also recorded” adds a separate entry of the source.",
  "data": [
    {"compound": "O=C([O-])c1c(Cl)c(Cl)c(Cl)c(Cl)c1-c1c2cc(I)c(=O)c(I)c-2oc2c(I)c([O-])c(I)cc12.[Na+].[Na+]", "note": "[Rose Bengal]", "values": [
      {"measurement": "localization of GAPDH-GFP fusion protein", "setting": "COS and Hek cells", "value": "concentrate in the nucleus of a proportion of the cells"}
    ]},
    {"compound": "CC(C)[C@H]1CC[C@@]2(CO2)[C@H]2C(=O)OCC(C(=O)O)=C[C@H]12", "note": "[Koningic acid]", "values": [
      {"measurement": "GAPDH glycolytic function", "setting": "GAPDH [1]", "value": "inhibits GAPDH glycolytic function"},
      {"measurement": "induction of apoptosis", "setting": "NG108-15 cells", "value": "induces apoptosis"}
    ]},
    {"compound": "CC(=O)N[C@@H](CS)C(=O)O", "note": "[NAC, N-acetyl cysteine]", "values": [
      {"measurement": "increase in GAPDH protein levels in early apoptosis", "setting": "GAPDH [2]", "value": "prevent the increase"}
    ]},
    {"compound": "C#CCNC(C)Cc1ccccc1", "note": "(single isomer, unassigned; (-)) [(−)-desmethyldeprenyl]", "values": [
      {"measurement": "binding to GAPDH", "setting": "GAPDH [3]", "value": "bind to GAPDH"},
      {"measurement": "nuclear translocation (relocation) of GAPDH", "setting": "PC12 cells", "value": "prevent the nuclear relocation of GAPDH"},
      {"measurement": "nuclear translocation (relocation) of GAPDH", "setting": "PC12 cells; listed as DES", "value": "blocked the nuclear translocation"},
      {"measurement": "increase in GAPDH protein levels in early apoptosis", "setting": "GAPDH [2]", "value": "prevent the increase"},
      {"measurement": "effect on the GAPDH tetramer", "setting": "GAPDH [4]", "value": "disrupt the tetramer forming dimers"},
      {"measurement": "oligomeric state of GAPDH bound to poly-U RNA", "setting": "GAPDH [4]", "value": "converted to a dimer"},
      {"measurement": "oligomeric state of GAPDH in the presence of SDS", "setting": "GAPDH [4]", "value": "remains dimeric"},
      {"measurement": "oligomeric state of GAPDH in the presence of SDS", "setting": "GAPDH [4]; listed as DES", "value": "convert it to a dimer"}
    ]},
    {"compound": "C#CCNCC1=Cc2ccccc2Oc2ccccc21", "note": "[CGP3466, dibenzo[bf]oxepin-10-ylmethyl-prop-2-ynyl-amine]", "values": [
      {"measurement": "binding to GAPDH", "setting": "GAPDH [3]", "value": "bind to GAPDH"},
      {"measurement": "proteins bound", "setting": "GAPDH [3]", "value": "tubulin, actin, synapsin and GAPDH"},
      {"measurement": "nuclear translocation (relocation) of GAPDH", "setting": "PC12 cells", "value": "prevent the nuclear relocation of GAPDH; also recorded: blocked the nuclear translocation"},
      {"measurement": "increase in GAPDH protein levels in early apoptosis", "setting": "GAPDH [2]", "value": "prevent the increase"},
      {"measurement": "effect on the GAPDH tetramer", "setting": "GAPDH [4]", "value": "disrupt the tetramer forming dimers"},
      {"measurement": "oligomeric state of GAPDH bound to poly-U RNA", "setting": "GAPDH [4]", "value": "converted to a dimer"},
      {"measurement": "oligomeric state of GAPDH in the presence of SDS", "setting": "GAPDH [4]", "value": "convert it to a dimer"},
      {"measurement": "oligomeric state of GAPDH in the presence of SDS", "setting": "GAPDH [4]; listed as CGP 3466", "value": "remains dimeric"},
      {"measurement": "drug binding to GAPDH after pre-treatment with antibody to the channel site", "setting": "GAPDH [5]", "value": "no binding"}
    ]},
    {"compound": "NC(=O)c1ccc[n+]([C@@H]2O[C@H](COP(=O)([O-])OP(=O)(O)OC[C@H]3O[C@@H](n4cnc5c(N)ncnc54)[C@H](O)[C@@H]3O)[C@@H](O)[C@H]2O)c1", "note": "[NAD^+]", "values": [
      {"measurement": "nuclear translocation of GAPDH", "setting": "fibroblasts", "value": "induced the dense translocation of GAPDH to the nucleus"},
      {"measurement": "GAPDH glycolytic activity", "setting": "GAPDH [6]", "value": "increases the enzyme's glycolytic activity"},
      {"measurement": "release of GAPDH from AU-rich RNA", "setting": "GAPDH [6]", "value": "releases GAPDH from AU-rich RNA"}
    ]},
    {"compound": "CC(=O)N[C@@H](C(=O)O)C(C)(C)SN=O", "note": "(racemic) [SNAP]", "values": [
      {"measurement": "induction of apoptosis", "setting": "[7]", "value": "induced apoptosis"}
    ]}
  ]
}
